Test results taken from PubChem BioAssay (NCI).
Several values for one entry are separate records, joined by “and”; a condition that tells them apart may be missing. Equal values may be shown once.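 Step 1: Grow cells in 96-well plates. Step 2: Expose to compound for 48 hours at 5 concentrations. Step 3: Interpolate endpoints linearly; if unreached, use highest concentration. GI50 = concentration required for 50% inhibition of growth. Definition used: TGI = concentration required for complete inhibition of growth.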

What was measured:
Assay in all cases: NCI-60 cell line screen, 48 h
A549 NSCLC = system: A549 NSCLC
MOLT-4 leukemia = system: MOLT-4 leukemia
ACHN renal = system: ACHN renal
OVCAR-4 ovarian = system: OVCAR-4 ovarian
A498 renal = system: A498 renal
RXF 393 renal = system: RXF 393 renal
HS 578T breast = system: HS 578T breast
IGROV1 ovarian = system: IGROV1 ovarian
K-562 leukemia = system: K-562 leukemia
HL-60(TB) leukemia = system: HL-60(TB) leukemia

Structure (SMILES)	GI50 (A549 NSCLC) [µM]	TGI (A549 NSCLC)	GI50 (MOLT-4 leukemia) [µM]	TGI (MOLT-4 leukemia) [µM]	GI50 (ACHN renal) [µM]	TGI (ACHN renal)	GI50 (OVCAR-4 ovarian) [µM]	TGI (OVCAR-4 ovarian)	GI50 (A498 renal) [µM]	TGI (A498 renal)	GI50 (RXF 393 renal) [µM]	TGI (RXF 393 renal)	GI50 (HS 578T breast) [µM]	TGI (HS 578T breast)	GI50 (IGROV1 ovarian) [µM]	TGI (IGROV1 ovarian)	GI50 (K-562 leukemia) [µM]	TGI (K-562 leukemia) [µM]	GI50 (HL-60(TB) leukemia) [µM]	TGI (HL-60(TB) leukemia)
CC1CCC(C#N)(NOC2=NCCN2)CC1 (stereo not drawn)	39.4	> 100 µM	37.3	> 100	15.2	30.1 µM	47.2	> 100 µM	40.5	> 100 µM	> 100	> 100 µM	> 100	> 100 µM	41.7	> 100 µM	29.8	> 100	34.5	> 100 µM
Cc1cc(Cl)ccc1Nc1nc(C(F)(F)F)ccc1C(=O)N/N=C/c1ccc(N(C)C)cc1	3.86	> 100 µM	2.22	> 100	2.57	> 100 µM	–	–	2.59	> 100 µM	0.633	44.4 µM	2.7	> 100 µM	2.03	9.11 µM	1.93	> 100	1.44	> 100 µM
Cc1ccc2oc(=O)cc(C3c4ccc([nH]4)C(c4cc(=O)oc5ccc(C)cc45)c4ccc([nH]4)C(c4cc(=O)oc5ccc(C)cc45)c4ccc([nH]4)C(c4cc(=O)oc5ccc(C)cc45)c4ccc3[nH]4)c2c1 (stereo not drawn)	0.063	1.54 µM	–	–	0.0621	2.67 µM	0.104	3.81 µM	0.0275	0.248 µM	0.0254	0.0774 µM	0.0351	2.02 µM	0.0492	1.73 µM	–	–	–	–
CCCCCC/C=C\CCCCCCCCCc1c(O)c(OC)cc(O)c1CN(C)C	–	17.1 µM	–	4.5	–	22.5 µM	–	3.38 µM	–	33.4 µM	–	–	–	10.9 µM	–	11 µM	–	4.49	–	5.37 µM
Cc1[nH]ccc2cc3nc4ccccc4c3cc12	2.5	12.2 µM	0.723	3.13	0.963	10.6 µM	2.65	10.7 µM	0.421	2.15 µM	1.74	3.91 µM	3.26	18 µM	3.65	15.2 µM	2.8	10.4	3.48	14.9 µM
CCCCCCCCCCC(CN(CC)CC)C(O)c1ccccc1 (stereo not drawn)	2.49	5.41 µM	2.25	5.8	1.61	3.07 µM	1.63	3.45 µM	3.68	14.4 µM	1.5	3.05 µM	1.75	4.07 µM	1.82	3.51 µM	2.03	4.67	2.13	5.04 µM
COc1ccc(Cn2cc3c(c2-c2ccccc2)CCc2cncnc2-3)cc1	3.55	14.1 µM	2.81	11.1	11.3	35.8 µM	10.2	33.7 µM	4.87	17.4 µM	3.56	9.82 µM	1.58	6.51 µM	5.8	23.9 µM	2.75	11.3	2.04	5.7 µM
O=C(Nn1c2c(sc1=NC1CC1)C(=O)c1ccccc1C2=O)c1cc2ccc1CCc1ccc(cc1)CC2	2.42	6.07 µM	2.22	8.89	1.39	3.03 µM	1.61	4.58 µM	20.7	63.4 µM	1.85	4.75 µM	2.09	6.03 µM	1.16	4.74 µM	2.43	> 100	2.18	6.26 µM
CCN1CCN(c2cc(C)nc(NCc3cc(Nc4ccnc5cc(Cl)ccc45)ccc3F)n2)CC1	5.1	> 100 µM	2.34	> 100	2.89	11.3 µM	2.08	> 100 µM	1.89	8.05 µM	1.86	4.19 µM	5.34	50.6 µM	3.31	34.1 µM	1.04	> 100	2.18	22.1 µM
O=C(Nc1ccc([N+](=O)[O-])cc1)c1cc2ccccc2cc1O	0.454	> 21.5 µM	0.675	> 21.1	0.38	16.8 µM	0.322	> 100 µM	0.197	0.628 µM	0.34	1.26 µM	0.618	> 100 µM	0.575	12.5 µM	0.347	> 100	0.235	0.909 µM
CN1CCN(c2ccc([N+](=O)[O-])c3no[n+]([O-])c23)CC1	0.385	3.53 µM and 2.06 µM	0.0645	–	0.158	0.787 µM and 0.954 µM	0.444	2.54 µM and 1.8 µM	0.288	2.76 µM and 1.71 µM	0.443	1.57 µM and 1.68 µM	0.228	2.41 µM and 1.93 µM	0.0516	0.919 µM and 0.362 µM	0.11	0.979	0.0322	0.157 µM and 0.155 µM
O=C1C(Cl)=C(Nc2ccc3c(c2NC2=C(Cl)C(=O)c4ccccc4C2=O)C(=O)c2ccccc2C3=O)C(=O)c2ccccc21	1.95	4.61 µM	3.25	17.5	2.15	9.05 µM	1.42	2.99 µM	2.02	4.2 µM	2.97	9.79 µM	2.1	6.88 µM	1.62	4.25 µM	2.75	7.81	2.36	14 µM
CN(C)CCN1C(=O)c2cccc3c(-c4ccc5ncn(C6CCCCC6)c5c4)ccc(c23)C1=O	1.12	2.56 µM	0.446	10.1	0.539	2.36 µM	2.11	18.1 µM	2.15	5.1 µM	1.35	2.96 µM	3.51	20.8 µM	1.12	5.86 µM	1.27	> 100	2.18	10.5 µM
CC(C)c1ccc(O)c(O)c(=O)c1 (tested in a mixture with another compound)	–	> 100 µM	–	5.53	–	13 µM	–	> 100 µM	–	25.2 µM	–	12 µM	–	69.7 µM	–	> 54.9 µM	–	> 100	–	2.39 µM
COC(=O)C1=C2CO[C@@H]3C[C@H]4C(C)(C)CCC[C@]4(C)C(=CC1)[C@]23C	36.8	> 100 µM	5.48	30.5	72	> 100 µM	62.1	> 100 µM	67.5	> 100 µM	50.9	> 100 µM	47	> 100 µM	60.7	> 100 µM	–	–	–	–
Cc1cccc2cc3ccc4ccccc4c3cc12	–	> 100 µM	–	70.9	–	> 100 µM	–	> 100 µM	–	> 100 µM	–	> 100 µM	–	> 100 µM	–	> 100 µM	–	> 100	–	52 µM
CCOC(=O)c1cn2ncnc(Oc3ccc(NC(=O)NCCN(CC)CC)c(Cl)c3)c2c1C	15.8	40.2 µM	2.36	5.67	2.31	5.54 µM	12.2	45.5 µM	2.15	8.08 µM	1.63	3.37 µM	3.88	21.7 µM	6.71	26.2 µM	2.01	4.48	1.81	4.07 µM
O=C(O)CCc1nc(-c2ccccc2)c(-c2ccccc2)o1	–	> 100 µM	–	> 100	–	> 100 µM	–	> 100 µM	–	> 100 µM	–	> 100 µM	–	> 100 µM	–	> 100 µM	–	> 100	–	> 100 µM
O=C1/C(=C/c2ccc(C(F)(F)F)cc2)COc2ccc(O)cc21	11.8	24.9 µM	2.33	21.2	1.84	3.53 µM	3.4	13 µM	11.6	24 µM	1.74	3.48 µM	2.7	–	1.6	3.17 µM	–	–	1.27	4.35 µM
CN(C)CCC(=O)NCc1c2nc3ccccc3nc2n2ccccc12	> 100	> 100 µM	38.8	> 100	> 100	> 100 µM	–	–	22	88.1 µM	54.8	> 100 µM	> 100	> 100 µM	0.338	28.4 µM	> 100	> 100	58.1	> 100 µM
CCC(C)c1cnc(CC(C)C)c(=O)[nH]1 (stereo not drawn)	–	> 100 µM	–	> 100	–	> 100 µM	–	> 100 µM	–	> 100 µM	–	> 100 µM	–	> 100 µM	–	> 100 µM	–	> 100	–	–
NCCCn1c2c(c3ccc([N+](=O)[O-])cc3c1=O)C(=O)c1cc(Cl)ccc1-2	< 0.01	0.116 µM	< 0.01	< 0.0114	< 0.01	0.124 µM	–	–	0.0274	0.596 µM	< 0.01	0.118 µM	1.11	2.8 µM	–	–	< 0.01	0.0411	< 0.01	< 0.016 µM
ClC1=C(Cl)C(Cl)=C(Cl)C1=Cc1ccc(Cl)cc1Cl	1.7	4.52 µM	0.3	0.98	–	–	0.53	5.89 µM	1.27	2.6 µM	0.215	0.477 µM	0.522	> 100 µM	0.404	3.19 µM	0.341	2	0.403	3.1 µM
Cc1ccc(C(=O)Nc2ccccc2C(=O)N/N=C(\c2ccccc2)c2ccccn2)cc1	0.703	> 100 µM	0.374	> 100	0.166	> 25.9 µM	0.157	> 100 µM	0.63	–	1.53	> 100 µM	9.13	> 100 µM	0.177	> 100 µM	0.855	> 100	–	–
C#CCOc1cccc(Nc2ncnc3c2ncn3C2CCN(C(=O)CCl)C2)c1 (stereo not drawn)	> 100	> 100 µM	–	–	17.7	31.8 µM	19.4	45 µM	> 100	> 100 µM	17.1	36.6 µM	24.7	91.5 µM	16.4	36.7 µM	25.7	> 100	19.4	41.8 µM
O=C1C(Nc2cccc(O)c2)=C(Sc2ccc(Cl)cc2)C(=O)N1Cc1ccccc1	5.38	35.9 µM	3.05	28.3	9.33	27 µM	14.1	> 100 µM	10.3	25.6 µM	3.9	21.2 µM	13.3	58.1 µM	26.8	> 100 µM	3.81	29.6	–	–
C/C=C/COc1cc(NC(=S)c2ccoc2C)ccc1OC	–	> 100 µM	–	> 100	–	–	–	> 100 µM	–	> 100 µM	–	> 100 µM	–	90.7 µM	–	> 100 µM	–	–	–	> 100 µM
NC(N)=N/N=C(/c1ccccc1)c1ccc(O)cc1O	–	> 100 µM	–	–	–	> 100 µM	–	> 100 µM	–	61.7 µM	–	> 100 µM	–	80.3 µM	–	> 100 µM	–	> 100	–	–
